Results as given in article PMC12610721, “The Action of Cannabidiol on Doxycycline Cytotoxicity in Human Cells—In Vitro Study” (Molecules, 2025).
In brackets after ≈: the same amount, converted by molar mass. Like-named read-outs stand apart in the source and are kept apart here.

What was measured:
SH-SY5Y cells [1] = tested on: SH-SY5Y cells; parameters: method as in PMID 16341128; settings: 24 h, cited from earlier work
SH-SY5Y cells [2] = tested on: SH-SY5Y cells; parameters: method as in earlier work; settings: 48 h exposure, cited from earlier work
HepG2 cells [3] = experiment: series of five cytotoxicity assays (MTT, NRU, TPC, LDH, BrdU), summary; type: cell-based; settings: Homo sapiens, HepG2, 72 h, across MTT, read-out: IC50 values, range depending on the cellular parameter evaluated
Description: The cultured cells, for 72 h, were exposed to doxycycline (at concentrations ranging from 1.56 μg/mL to 200 μg/mL), both alone and in combination with CBD: 1.56 μg/mL (DOX + C1) and 3.125 μg/mL (DOX + C2) at two non-toxic doses (Supplementary Materials). A series of cytotoxicity assays included assessments of mitochondrial activity, lysosomal activity, cell membrane integrity, DNA synthesis, and cell proliferation.
The metabolic activity of viable cells was assessed by measuring dehydrogenase activity [82]. After exposing the cell cultures to the test compounds, 10 µL of MTT solution (5 mg/mL in PBS) was added to each well of a 96-well plate. […] The plate was shaken for 15 min at room temperature and transferred to a Synergy 2 Multi-Mode Microplate Reader (BioTek® Instruments Inc., Winooski, VT, USA) to measure absorbance at 570 nm, using a blank as reference. Cytotoxicity was expressed as a percentage relative to the negative control [83].
This method is based on staining viable cells with neutral red, a dye that readily diffuses through the plasma membrane and accumulates in lysosomes [84]. […] After 10 min of shaking, the absorbance of the extracted dye was measured at 540 nm using a Synergy 2 Multi-Mode Microplate Reader (BioTek® Instruments Inc., Winooski, VT, USA), with a blank as reference. Cytotoxicity was expressed as a percentage relative to the negative control [83]. […]

HEK-293 cells [4] = experiment: cell membrane integrity (LDH leakage assay)
Description: (§1) This innovative study evaluated the effects of cannabidiol (Cannabis sativa L.) on doxycycline-induced toxicity using three cell cultures: neural—SH-SY5Y, liver—HepG2, and kidney—HEK-293. […] A series of cytotoxicity assays included assessments of mitochondrial activity, lysosomal activity, cell membrane integrity, DNA synthesis, and cell proliferation. Based on the obtained results, IC50 values for doxycycline, both in monotherapy and in combination with CBD, were calculated, along with evaluations of ROS, death of cells, and morphology. The interaction between the drug and CBD was further analyzed by the combination index (CI).
(§2) Cell membrane integrity was assessed by measuring lactate dehydrogenase (LDH) release, using a commercially available Cytotoxicity Detection Kit (LDH) (Roche Diagnostics, Warsaw, Poland). After incubation, 100 µL of culture medium (cell-free) from each well was transferred to the corresponding wells of an optically clear 96-well flat-bottom microplate, and 100 µL of reaction mixture was added to each well. The plate was then incubated for 30 min at room temperature in the dark. To stop the reaction, 50 µL of 1 M HCl was added to each well. Absorbance was measured at 492 nm using the Synergy 2 Multi-Mode Microplate Reader (BioTek® Instruments Inc., Winooski, VT, USA), with a blank as reference.
(§3) To determine the types of interaction that occur when cells are exposed to combinations of DOX and CBD, the method established by Chou and Talalay was used in this study. The dose–effect relationships of the individual and combined test compounds were modeled biometrically using the Median-Effect Equation based on the Mass Action Law.fa/fu = (D/Dm)^m
(§4) In this isobolographic analysis, the combination index (CI) is a quantitative parameter used to evaluate the type and strength of interactions between multiple compounds. For all combinations, CI values were calculated across a range of affected fractions (Fa) from 0.05 to 0.95 (corresponding to 5–95% toxicity). CI values of 0.9–1.1, <0.9, and >1.1 indicate additive, synergistic, and antagonistic effects, respectively.
(§5) The study was conducted in three independent experiments (n = 3). […] Cytotoxicity data were analyzed using one-way analysis of variance (ANOVA), followed by Dunnett’s post hoc test to assess significance relative to the negative control. The half-maximal inhibitory concentration (IC50), representing the drug or drug–CBD mixture concentration required to inhibit cell viability by 50%, was calculated using GraphPad Prism 5.0. Statistical comparisons between IC50 values were performed using ANOVA followed by Tukey’s post hoc test. Differences were considered statistically significant at p ≤ 0.05.

SH-SY5Y cells [5] = experiment: cell membrane integrity (LDH leakage assay); settings: 72 h
Description: as §1, §2, §3, §4, §5

HepG2 cells [6] = experiment: cell membrane integrity (LDH leakage assay)
Description: as §1, §2, §3, §4, §5

normal HK-2 cells = tested on: normal HK-2 cells; parameters: method as in PMID 34644207; settings: HK-2, 20 µg/mL, without triggering apoptosis; cited from earlier work
HEK-293 cells [7] = experiment: series of five cytotoxicity assays (MTT, NRU, TPC, LDH, BrdU), summary; type: cell-based; settings: Homo sapiens, HEK293, 72 h, read-out: IC50 values, range depending on the cellular parameter assessed
HEK-293 cells [8] = experiment: lysosomal activity (NRU assay)
Description: as §1
(§6) This method is based on staining viable cells with neutral red, a dye that readily diffuses through the plasma membrane and accumulates in lysosomes. After incubation with the test compounds, the medium containing the substances was removed, and the cells were washed with PBS. Subsequently, 100 µL/well of neutral red (NR) solution (50 µg/mL) was added and incubated for 3 h. After incubation, the cells were washed again with PBS. The dye retained in viable cells was extracted using a solution of acetic acid, ethanol, and water (1:50:49, v/v/v). After 10 min of shaking, the absorbance of the extracted dye was measured at 540 nm using a Synergy 2 Multi-Mode Microplate Reader (BioTek® Instruments Inc., Winooski, VT, USA), with a blank as reference. Cytotoxicity was expressed as a percentage relative to the negative control.
as §3, §4, §5

SH-SY5Y cells [9] = experiment: lysosomal activity (NRU assay); settings: 72 h
Description: as §1, §6, §3, §4, §5

HepG2 cells [10] = experiment: lysosomal activity (NRU assay)
Description: as §1, §6, §3, §4, §5

[11] = tested on: rat neuronal cell line PC12; parameters: method as in PMID 33798505; settings: PC12, 24 h, 20 µM (10.26 µg/mL); cited from earlier work
HEK-293 cells [12] = experiment: cellular morphology (May–Grünwald–Giemsa staining); type: cell-based, human; settings: HEK-293, 72 h
Description: (§7) This method was used to illustrate changes in cell morphology under the influence of the tested compounds. The staining was performed on Lab-Tek plates (Nunc, NY, USA). Cells at a density of 1 × 10^5 cells/mL were used. After 72 h of incubation with or without the tested drugs (control), the culture medium was removed, and the cells were stained with 1 mL of May–Grünwald dye for 3 min at room temperature. Then, 1 mL of deionized water was added to each plate. After another 3 min of incubation at room temperature, the liquid was removed. All plates were rinsed with deionized water, and the cells were subsequently stained with Giemsa dye (dilution 1:20) for 30 min at room temperature. After staining, the dye was removed, the wells were rinsed with 1 mL of deionized water, and the plates were allowed to dry. Images were captured using a light microscope (Zeiss, Oberkochen, Germany).

SH-SY5Y cells [13] = experiment: cellular morphology (May–Grünwald–Giemsa staining); type: cell-based, human; settings: 72 h
Description: as §7

HepG2 cells [14] = experiment: cellular morphology (May–Grünwald–Giemsa staining); type: cell-based, human; settings: HepG2, 72 h
Description: as §7

various human cell lines = settings: cited from earlier work

SMILES: C[C@H]1c2cccc(O)c2C(=O)C2=C(O)[C@]3(O)C(=O)C(C(N)=O)=C(O)[C@@H](N(C)C)[C@@H]3[C@@H](O)[C@@H]21 [DOX, doxycycline hyclate]
- effect on cell density (SH-SY5Y cells [1]; 1 µg/mL): minimal
- effect on cell density (SH-SY5Y cells [1]; higher concentrations up to 4 µg/mL): decreased SH-SY5Y cell density
- IC50 (SH-SY5Y cells [2]; converted value in brackets): 1.9 µg/mL
- IC50 (SH-SY5Y cells [2]; read-out: IC50): 3.7 ± 0.1 µM
- IC50 (HepG2 cells [3]): 13.4 to 200 µg/mL (≈ 30.2 to 450 µM)
- doxycycline concentration that caused degradation of the cell membrane (HEK-293 cells [4]; HEK-293, LDH, 72 h): 6.25 µg/mL
- IC50 (HEK-293 cells [4]; Homo sapiens, HEK293, 72 h): 30.4 ± 2.7 µg/mL
- IC50 (SH-SY5Y cells [5]; Homo sapiens): 149 ± 6.5 µg/mL
- doxycycline concentration that induced cell membrane breakdown (SH-SY5Y cells [5]; LDH): 12.5 µg/mL
- doxycycline concentration that disrupted membrane integrity (HepG2 cells [6]; HepG2, LDH, 72 h): 50 µg/mL
- IC50 (HepG2 cells [6]; Homo sapiens, HepG2, 72 h): > 200 µg/mL
- effect on DNA synthesis (normal HK-2 cells): inhibited DNA synthesis
- IC50 (HEK-293 cells [7]): 8.9 to 30.4 µg/mL (≈ 20 to 68.4 µM)
- doxycycline concentration that inhibited lysosomal activity (HEK-293 cells [8]; HEK-293, NRU, 72 h): 6.25 µg/mL
- IC50 (HEK-293 cells [8]; Homo sapiens, HEK293, 72 h): 12.7 ± 1 µg/mL
- IC50 (SH-SY5Y cells [9]; Homo sapiens): > 200 µg/mL
- doxycycline concentration at which lysosomal activity was inhibited (SH-SY5Y cells [9]; NRU): 50 µg/mL
- doxycycline concentration that inhibited lysosomal activity (HepG2 cells [10]; HepG2, NRU, 72 h): 25 µg/mL
- IC50 (HepG2 cells [10]; Homo sapiens, HepG2, 72 h): 13.4 ± 0.9 µg/mL
- neurotoxicity [11]: no signs of neurotoxicity
- morphological changes (HEK-293 cells [12]): cell aggregation followed by detachment from the adhesive surface
- morphological changes (SH-SY5Y cells [13]): cell aggregation followed by detachment from the adhesive surface
- morphological changes (HepG2 cells [14]): cell aggregation followed by detachment from the adhesive surface
- effect of extended incubation on human cell lines (various human cell lines; 96 h, 0.1 to 10 µg/mL, increased lactate production and decreased oxygen consumption): cytotoxic effects
- concentration observed to inhibit proliferation and induce apoptotic cell death (various human cell lines; tested human cell cultures): 1000 ng/mL
